According to ChEMBL document CHEMBL1275557, “First countrywide survey of acquired metallo-beta-lactamases in gram-negative pathogens in Italy” (2008):
≈ marks a conversion by molar mass, not a printed value.

Key:
Format in all cases: functional
Pseudomonas aeruginosa [1] = test: Antibacterial activity against IMP-13 producing Pseudomonas aeruginosa clone C3 isolate PG-12X-03 by Etest method
Pseudomonas aeruginosa [2] = test: Antibacterial activity against VIM-1 producing Pseudomonas aeruginosa clone D2 isolate VA-06X-17 by Etest method
Pseudomonas aeruginosa [3] = test: Antibacterial activity against VIM-1 producing Pseudomonas aeruginosa clone A3 isolate FG-17X-08 by Etest method
Pseudomonas aeruginosa [4] = test: Antibacterial activity against VIM-2 producing Pseudomonas aeruginosa clone B2 isolate VA-06X-20 by Etest method
Pseudomonas aeruginosa [5] = test: Antibacterial activity against VIM-1 producing Pseudomonas aeruginosa clone G isolate NA-14X-13 by Etest method
Pseudomonas aeruginosa [6] = test: Antibacterial activity against metallo-beta-lactamase positive Pseudomonas aeruginosa assessed as percent susceptible isolates by Etest method
Pseudomonas aeruginosa [7] = test: Antibacterial activity against VIM-2 producing Pseudomonas aeruginosa clone B1 isolate SS-09X-45 by Etest method
Pseudomonas aeruginosa [8] = test: Antibacterial activity against VIM-2 producing Pseudomonas aeruginosa clone B3 isolate PV-05X-07 by Etest method
Pseudomonas aeruginosa [9] = test: Antibacterial activity against VIM-1 producing Pseudomonas aeruginosa clone D4 isolate VA-06X-47 by Etest method
Pseudomonas aeruginosa [10] = test: Antibacterial activity against IMP-13 producing Pseudomonas aeruginosa clone C1 isolate AV-13X-28 by Etest method
Pseudomonas aeruginosa [11] = test: Antibacterial activity against VIM-1 producing Pseudomonas aeruginosa clone A2 isolate NA-14X-32 by Etest method
Pseudomonas aeruginosa [12] = test: Antibacterial activity against VIM-2 producing Pseudomonas aeruginosa clone B3 isolate PV-05X-02 by Etest method
Pseudomonas aeruginosa [13] = test: Antibacterial activity against VIM-1 producing Pseudomonas aeruginosa clone A3 isolate NA-14X-34 by Etest method
Pseudomonas aeruginosa [14] = test: Antibacterial activity against VIM-1 producing Pseudomonas aeruginosa clone D2 isolate VA-06X-16 by Etest method
Pseudomonas aeruginosa [15] = test: Antibacterial activity against VIM-1 producing Pseudomonas aeruginosa clone A2 isolate NA-14X-26 by Etest method
Pseudomonas aeruginosa [16] = test: Antibacterial activity against VIM-1 producing Pseudomonas aeruginosa clone A1 isolate FG-17X-14 by Etest method
Pseudomonas aeruginosa [17] = test: Antibacterial activity against IMP-13 producing Pseudomonas aeruginosa clone C2 isolate NA-14X-02 by Etest method
Pseudomonas aeruginosa [18] = test: Antibacterial activity against VIM-1 producing Pseudomonas aeruginosa clone F isolate RM-11X-09 by Etest method
Pseudomonas aeruginosa [19] = test: Antibacterial activity against VIM-1 producing Pseudomonas aeruginosa clone A2 isolate NA-14X-21 by Etest method
Pseudomonas aeruginosa [20] = test: Antibacterial activity against VIM-1 producing Pseudomonas aeruginosa clone D3 isolate VA-06X-65 by Etest method
Pseudomonas aeruginosa [21] = test: Antibacterial activity against VIM-2 producing Pseudomonas aeruginosa clone B2 isolate VA-06X-28 by Etest method
Pseudomonas aeruginosa [22] = test: Antibacterial activity against VIM-1 producing Pseudomonas aeruginosa clone D1 isolate VA-06X-63 by Etest method
Enterobacter cloacae = test: Antibacterial activity against VIM-1 producing Enterobacter cloacae isolate TO-16X-51 by Etest method
Pseudomonas aeruginosa [23] = test: Antibacterial activity against IMP-13 producing Pseudomonas aeruginosa clone C2 isolate NA-14X-10 by Etest method
Pseudomonas aeruginosa [24] = test: Antibacterial activity against VIM-2 producing Pseudomonas aeruginosa clone B2 isolate VA-06X-38 by Etest method
Pseudomonas aeruginosa [25] = test: Antibacterial activity against VIM-2 producing Pseudomonas aeruginosa clone B3 isolate CR-04X-14 by Etest method
Pseudomonas putida = test: Antibacterial activity against VIM-1 producing Pseudomonas putida isolate RM-11X-11 by Etest method
Pseudomonas aeruginosa [26] = test: Antibacterial activity against VIM-1 producing Pseudomonas aeruginosa clone D isolate VA-06X-69 by Etest method
Pseudomonas aeruginosa [27] = test: Antibacterial activity against IMP-13 producing Pseudomonas aeruginosa clone C2 isolate NA-14X-11 by Etest method
Pseudomonas aeruginosa [28] = test: Antibacterial activity against IMP-13 producing Pseudomonas aeruginosa clone C2 isolate NA-14X-12 by Etest method
Pseudomonas aeruginosa [29] = test: Antibacterial activity against VIM-1 producing Pseudomonas aeruginosa clone E isolate VA-06X-29 by Etest method

`NCC[C@H](O)C(=O)N[C@@H]1C[C@H](N)[C@@H](O[C@H]2O[C@H](CN)[C@@H](O)[C@H](O)[C@H]2O)[C@H](O)[C@H]1O[C@H]1O[C@H](CO)[C@@H](O)[C@H](N)[C@H]1O` [AMIKACIN] was tested, and the MIC (Pseudomonas aeruginosa [1]) was > 128 µg/mL, the MIC (Pseudomonas aeruginosa [2]) was 8 µg/mL (≈ 13.7 µM) and the MIC (Pseudomonas aeruginosa [3]) was 16 µg/mL (≈ 27.3 µM). The MIC (Pseudomonas aeruginosa [4]) was > 128 µg/mL, the MIC (Pseudomonas aeruginosa [5]) was > 128 µg/mL and the Activity (Pseudomonas aeruginosa [6]) was 50%. For the same compound, the MIC (Pseudomonas aeruginosa [7]) was > 128 µg/mL, the MIC (Pseudomonas aeruginosa [8]) was > 128 µg/mL and the MIC (Pseudomonas aeruginosa [9]) was 8 µg/mL (≈ 13.7 µM). The MIC (Pseudomonas aeruginosa [10]) was 8 µg/mL (≈ 13.7 µM), the MIC (Pseudomonas aeruginosa [11]) was 24 µg/mL (≈ 41 µM) and the MIC (Pseudomonas aeruginosa [12]) was > 128 µg/mL. The MIC (Pseudomonas aeruginosa [13]) was 24 µg/mL (≈ 41 µM), the MIC (Pseudomonas aeruginosa [14]) was 8 µg/mL (≈ 13.7 µM) and the MIC (Pseudomonas aeruginosa [15]) was 32 µg/mL (≈ 54.6 µM). For the same compound, the MIC (Pseudomonas aeruginosa [16]) was 8 µg/mL (≈ 13.7 µM), the MIC (Pseudomonas aeruginosa [17]) was 16 µg/mL (≈ 27.3 µM) and the MIC (Pseudomonas aeruginosa [18]) was 8 µg/mL (≈ 13.7 µM). The MIC (Pseudomonas aeruginosa [19]) was 24 µg/mL (≈ 41 µM), the MIC (Pseudomonas aeruginosa [20]) was 8 µg/mL (≈ 13.7 µM) and the MIC (Pseudomonas aeruginosa [21]) was > 128 µg/mL. For the same compound, the MIC (Pseudomonas aeruginosa [22]) was 8 µg/mL (≈ 13.7 µM), the MIC (Enterobacter cloacae) was 24 µg/mL (≈ 41 µM) and the MIC (Pseudomonas aeruginosa [23]) was 16 µg/mL (≈ 27.3 µM). For the same compound, the MIC (Pseudomonas aeruginosa [24]) was > 128 µg/mL, the MIC (Pseudomonas aeruginosa [25]) was > 128 µg/mL and the MIC (Pseudomonas putida) was 1 µg/mL (≈ 1.71 µM). It also gave an MIC (Pseudomonas aeruginosa [26]) of 8 µg/mL (≈ 13.7 µM), an MIC (Pseudomonas aeruginosa [27]) of 16 µg/mL (≈ 27.3 µM) and an MIC (Pseudomonas aeruginosa [28]) of 16 µg/mL (≈ 27.3 µM). For the same compound, the MIC (Pseudomonas aeruginosa [29]) was > 128 µg/mL.

With `C[C@H]1[C@H](NC(=O)/C(=N\OC(C)(C)C(=O)O)c2csc(N)n2)C(=O)N1S(=O)(=O)O` [AZTREONAM] the Activity (Pseudomonas aeruginosa [6]) was 75% and the MIC (Pseudomonas putida) was 8 µg/mL (≈ 18.4 µM).

`CC(C)(O/N=C(\C(=O)N[C@@H]1C(=O)N2C(C(=O)[O-])=C(C[n+]3ccccc3)CS[C@H]12)c1csc(N)n1)C(=O)O` [CEFTAZIDIME] was tested, and the MIC (Pseudomonas aeruginosa [1]) was > 128 µg/mL, the MIC (Pseudomonas aeruginosa [2]) was > 128 µg/mL and the MIC (Pseudomonas aeruginosa [3]) was > 128 µg/mL. For the same compound, the MIC (Pseudomonas aeruginosa [4]) was 64 µg/mL (≈ 117 µM), the MIC (Pseudomonas aeruginosa [5]) was > 128 µg/mL and the MIC (Pseudomonas aeruginosa [7]) was > 128 µg/mL. For the same compound, the MIC (Pseudomonas aeruginosa [8]) was 32 µg/mL (≈ 58.5 µM), the MIC (Pseudomonas aeruginosa [9]) was > 128 µg/mL and the MIC (Pseudomonas aeruginosa [10]) was > 128 µg/mL. The MIC (Pseudomonas aeruginosa [11]) was > 128 µg/mL, the MIC (Pseudomonas aeruginosa [12]) was 32 µg/mL (≈ 58.5 µM) and the MIC (Pseudomonas aeruginosa [13]) was > 128 µg/mL. The MIC (Pseudomonas aeruginosa [14]) was > 128 µg/mL, the MIC (Pseudomonas aeruginosa [15]) was > 128 µg/mL and the MIC (Pseudomonas aeruginosa [16]) was > 128 µg/mL. The MIC (Pseudomonas aeruginosa [17]) was > 128 µg/mL, the MIC (Pseudomonas aeruginosa [18]) was > 128 µg/mL and the MIC (Pseudomonas aeruginosa [19]) was > 128 µg/mL. For the same compound, the MIC (Pseudomonas aeruginosa [20]) was > 128 µg/mL, the MIC (Pseudomonas aeruginosa [21]) was 64 µg/mL (≈ 117 µM) and the MIC (Pseudomonas aeruginosa [22]) was > 128 µg/mL. The MIC (Enterobacter cloacae) was > 128 µg/mL, the MIC (Pseudomonas aeruginosa [23]) was > 128 µg/mL and the MIC (Pseudomonas aeruginosa [24]) was 48 µg/mL (≈ 87.8 µM). The MIC (Pseudomonas aeruginosa [25]) was 64 µg/mL (≈ 117 µM), the MIC (Pseudomonas putida) was > 128 µg/mL and the MIC (Pseudomonas aeruginosa [26]) was > 128 µg/mL. The MIC (Pseudomonas aeruginosa [27]) was > 128 µg/mL, the MIC (Pseudomonas aeruginosa [28]) was > 128 µg/mL and the MIC (Pseudomonas aeruginosa [29]) was > 128 µg/mL.

For `O=C(O)c1cn(C2CC2)c2cc(N3CCNCC3)c(F)cc2c1=O` [CIPROFLOXACIN], the MIC (Pseudomonas putida) was 0.06 µg/mL (≈ 0.181 µM).
